Measured values published in PMC6428840, “The Arabidopsis H3K27me3 demethylase JUMONJI 13 is a temperature and photoperiod dependent flowering repressor” (Nature Communications, 2019).

Biological target: T1, JMJ13CD (JMJ13 catalytic domain) (Arabidopsis thaliana, UniProt F4KIX0)
T1 construct: catalytic domain, residues 90-578 (jumonji, helical and C4HCHC zinc finger domains); His6-SUMO tag removed by ulp1; E. coli BL21(DE3) RIL; Ni2+ in place of Fe2+
Assay: X-ray crystal structure, […] Å
Type: binding
Details: JMJ13-NOG crystals soaked with 10 mM H3(24-35)K27me3 peptide; Ni2+ in place of Fe2+; pH 6.5; active site, α-KG analog

T1 sequence (F4KIX0 90-578): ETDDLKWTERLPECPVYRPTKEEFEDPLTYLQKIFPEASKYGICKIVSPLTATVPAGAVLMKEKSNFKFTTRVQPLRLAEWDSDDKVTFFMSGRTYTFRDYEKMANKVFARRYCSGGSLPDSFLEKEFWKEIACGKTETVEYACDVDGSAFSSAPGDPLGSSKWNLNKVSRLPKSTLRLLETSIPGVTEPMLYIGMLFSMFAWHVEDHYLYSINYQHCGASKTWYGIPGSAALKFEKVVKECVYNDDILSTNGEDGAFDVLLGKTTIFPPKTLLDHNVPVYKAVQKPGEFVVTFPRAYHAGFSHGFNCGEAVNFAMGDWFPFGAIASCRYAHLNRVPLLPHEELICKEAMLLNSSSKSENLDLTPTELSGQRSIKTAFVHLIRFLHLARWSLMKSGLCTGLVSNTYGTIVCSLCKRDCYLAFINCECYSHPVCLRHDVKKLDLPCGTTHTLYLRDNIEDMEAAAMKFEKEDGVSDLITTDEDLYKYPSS

## O=C(O)CNC(=O)C(=O)O [NOG, N-oxalylglycine]
  X-ray crystal structure, 2.6 Å: in complex with the α-KG analog N-oxalylglycine (NOG) and an H3K27me3 peptide
